Results as given in US20250144067A1, “PERSONALIZED STARVATION THERAPY FOR CANCER” (Faeth Therapeutics, Inc., priority 2021, published 2025).
Structures can show the parent of a compound that is named as a salt. Where two headings read alike, the source gives them in different places.

Columns and labels:
[1] = system: NCI-H292 lung cancer cells; experiment: FDA drug screening, complete media vs cholesterol-free media without statin (TABLE 1); assay type: cell-based, human
[2] = system: NCI-H292 lung cancer cells; experiment: FDA drug screening, complete media vs cholesterol-free media with simvastatin (TABLE 2); assay type: cell-based, human
[3] = Complete minus Cholesterol-free, >0 enhanced anti-cancer activity, about 0 neutral, <0 antagonist
[4] = NCI-H292 cells, cholesterol-free media without statin, FDA drug library screen
[5] = NCI-H292 cells, complete media, FDA drug library screen
[6] = NCI-H292 cells, cholesterol-free media with simvastatin 0.04 μM, cell growth value in FDA drug screen
[7] = NCI-H292 cells, complete media, cell growth value in FDA drug screen
[8] = complete media minus cholesterol-free media + simvastatin, >0 enhanced anti-cancer activity, about 0 neutral, <0 antagonist
[9] = NCI-H292 cells, FDA drug library screen, cholesterol-free media with simvastatin 0.04 μM
[10] = NCI-H292 cells, FDA drug library screen, complete media
[11] = complete media vs cholesterol-free media + simvastatin (0.04 μM), >0 enhanced anti-cancer activity, about 0 neutral, <0 antagonist
[12] = NCI-H292 cells, cholesterol-free media without statin
[13] = complete vs cholesterol-free media, greater than 0 enhanced anti-cancer activity, about 0 neutral, below 0 antagonists
[14] = NCI-H292 cells, FDA library drug in cholesterol-free media with simvastatin 0.04 μM
[15] = NCI-H292 cells, FDA library drug in complete media
[16] = complete vs cholesterol-free media, >0 enhanced anti-cancer activity, about 0 neutral, <0 antagonist
[17] = NCI-H292 cells, cholesterol-free media with simvastatin 0.04 μM, FDA drug library screen (TABLE 2)
[18] = NCI-H292 cells, complete media, FDA drug library screen (TABLE 2)
[19] = complete media minus cholesterol-free media + simvastatin (0.04 μM), >0 enhanced anti-cancer activity, about 0 neutral, <0 antagonist
[20] = Complete minus Cholesterol-free, greater than 0 enhanced anti-cancer activity, about 0 neutral, below 0 antagonist
[21] = NCI-H292 cells, FDA drug library screen, cholesterol-free media without statin
[22] = NCI-H292 cells, drug in cholesterol-free media with simvastatin 0.04 μM
[23] = NCI-H292 cells, drug in complete media

| Compound | Difference [1, 3] | Cholesterol-free [1, 4] | Complete [1, 5] | Difference [2, 8] | Cholesterol-free media + simvastatin (0.04 μM) [2, 9] | Complete Media [2, 10] | Difference [2, 11] | Cholesterol-free [1, 12] | Complete ([1]; NCI-H292 cells, complete media) | other results |
| --- | --- | --- | --- | --- | --- | --- | --- | --- | --- | --- |
| CO[C@H]1C[C@@H]2CC[C@@H](C)[C@@](O)(O2)C(=O)C(=O)N2CCCC[C@H]2C(=O)O[C@H]([C@H](C)C[C@@H]2CC[C@@H](OC(=O)C(C)(CO)CO)[C@H](OC)C2)CC(=O)[C@H](C)/C=C(\C)[C@@H](O)[C@@H](OC)C(=O)[C@H](C)C[C@H](C)/C=C/C=C/C=C/1C [Temsirolimus] | −0.06 | 0.4176 | 0.3544 | 0.11 | – | – | – | – | – | Cholesterol-free media + simvastatin (0.04 μM) [2, 6]: 0.4472; Complete Media [2, 7]: 0.5571 |
| COc1cc2nc(N3CCN(C(=O)[C@@H]4CCCO4)CC3)nc(N)c2cc1OC [(S)-Terazosin] | 0.01 | 0.9099 | 0.9163 | – | 0.9768 | 0.8794 | −0.10 | – | – | – |
| CN(C)[C@@H]1C(O)=C(C(N)=O)C(=O)[C@@]2(O)C(O)=C3C(=O)c4c(O)ccc(Cl)c4[C@@](C)(O)[C@H]3C[C@@H]12 [Chlortetracycline (hydrochloride)] | – | – | – | – | – | – | −0.38 | 1.583 | 1.205 | Difference [1, 13]: −0.38; Cholesterol-free media + simvastatin (0.04 μM) [2, 14]: 1.491; Complete Media [2, 15]: 1.106 |
| Miconazole (nitrate) | – | – | – | – | – | – | – | – | – | Cholesterol-free [1]: 0.9239; Complete [1]: 0.8136; Difference [1]: −0.11; Cholesterol-free media + simvastatin (0.04 μM) [2]: 0.4137; Complete Media [2]: 0.8009; Difference [2]: 0.39 |
| COc1cccc2c1C(=O)c1c(O)c3c(c(O)c1C2=O)C[C@@](O)(C(=O)CO)C[C@@H]3O[C@H]1C[C@H](N)[C@H](O)[C@H](C)O1 [Doxorubicin (hydrochloride)] | – | −0.08252 | −0.006007 | – | – | – | – | – | – | Difference [1, 16]: 0.08; Cholesterol-free media + simvastatin (0.04 μM) [2, 17]: 0.09054; Complete Media [2, 18]: 0.01994; Difference [2, 19]: −0.07 |
| CCc1c2c(nc3ccc(OC(=O)N4CCC(N5CCCCC5)CC4)cc13)-c1cc3c(c(=O)n1C2)COC(=O)[C@]3(O)CC [Irinotecan (hydrochloride trihydrate)] | – | – | – | – | 0.6283 | 0.5165 | −0.11 | – | – | Difference [1, 20]: −0.10; Cholesterol-free [1, 21]: 0.3845; Complete [1, 10]: 0.2808 |
| CC(=O)N1CCN(c2ccc(OC[C@H]3CO[C@](Cn4ccnc4)(c4ccc(Cl)cc4Cl)O3)cc2)CC1 [(+)-Ketoconazole] | −0.24 | – | – | 0.48 | 0.4743 | 0.9511 | – | 1.237 | 0.9934 | – |
| CC(=O)O[C@@]12CO[C@@H]1C[C@H](O)[C@@]1(C)C(=O)[C@H](O)C3=C(C)[C@@H](OC(=O)[C@H](O)[C@@H](NC(=O)OC(C)(C)C)c4ccccc4)C[C@@](O)([C@@H](OC(=O)c4ccccc4)[C@H]21)C3(C)C [Docetaxel] | 0.04 | 0.1661 | 0.2055 | 0.02 | – | – | – | – | – | Cholesterol-free media + simvastatin (0.04 μM) [2, 6]: 0.2547; Complete Media [2, 7]: 0.2778 |
| CCN(CC)CC#CCOC(=O)C(O)(c1ccccc1)C1CCCCC1 (centres unmarked) [Oxybutynin (chloride)] | – | – | – | – | – | – | −0.20 | 1.171 | 0.8317 | Difference [1, 13]: −0.34; Cholesterol-free media + simvastatin (0.04 μM) [2, 22]: 1.236; Complete Media [2, 23]: 1.034 |
| O=C1C(O)=C([C@H]2CC[C@H](c3ccc(Cl)cc3)CC2)C(=O)c2ccccc21 [Atovaquone] | – | 0.9543 | 1.102 | 0.17 | 1.327 | 1.493 | – | – | – | Difference [1, 16]: 0.15 |
| CCc1ccc(C(=O)C(C)CN2CCCCC2)cc1 (centres unmarked) [Eperisone (Hydrochloride)] | – | – | – | – | 1.323 | 1.222 | −0.10 | – | – | Difference [1, 20]: −0.09; Cholesterol-free [1, 21]: 0.978; Complete [1, 10]: 0.8889 |
| CN1CCc2c(c3ccccc3n2Cc2ccccc2)C1 [Mebhydrolin] | −0.31 | – | – | – | 0.7768 | 0.6781 | −0.10 | 1.813 | 1.508 | – |
| Cc1onc(-c2ccccc2Cl)c1C(=O)N[C@@H]1C(=O)N2[C@@H]1SC(C)(C)[C@@H]2C(=O)O [Cloxacillin (sodium monohydrate)] | −0.19 | – | – | 0.13 | – | – | – | 1.114 | 0.9266 | Cholesterol-free media + simvastatin (0.04 μM) [2, 6]: 1.045; Complete Media [2, 7]: 1.18 |
| N#CC(c1ccc(Cl)cc1)c1c(Cl)cc(-n2ncc(=O)[nH]c2=O)cc1Cl (centres unmarked) [Diclazuril] | – | 0.7362 | 1.131 | – | 1.052 | 0.9766 | −0.08 | – | – | Difference [1, 16]: 0.39 |
| CCCOc1ccc(S(=O)(=O)NCCC2CCCN2C)cc1-c1nc2c(CCC)nn(C)c2c(=O)[nH]1 (centres unmarked) [Udenafil] | −0.28 | – | – | 0.08 | – | – | – | 1.473 | 1.195 | Cholesterol-free media + simvastatin (0.04 μM) [2, 6]: 1.921; Complete Media [2, 7]: 2.002 |
| COc1ccc(-c2cc(=O)c3c(O)cc(O[C@@H]4O[C@H](CO[C@@H]5O[C@@H](C)[C@H](O)[C@@H](O)[C@H]5O)[C@@H](O)[C@H](O)[C@H]4O)cc3o2)cc1O [Diosmin] | – | 0.7178 | 1.465 | – | 1.252 | – | −0.10 | – | – | Difference [1, 16]: 0.75 |
| CCOC(=O)c1c(N)sc2c1CCN(Cc1ccccc1)C2 [Tinoridine hydrochloride] | – | – | – | 0.03 | – | – | – | – | – | Difference [1, 20]: −0.11; Cholesterol-free [1, 21]: 1.153; Complete [1, 10]: 1.039; Cholesterol-free media + simvastatin (0.04 μM) [2, 6]: 1.034; Complete Media [2, 7]: 1.059 |
| O=C(O)c1cc(-c2ccc(F)cc2F)ccc1O [Diflunisal] | – | 1.041 | 1.674 | – | – | – | – | – | – | Difference [1, 16]: 0.63; Cholesterol-free media + simvastatin (0.04 μM) [2, 17]: 0.785; Complete Media [2, 18]: 0.7827; Difference [2, 19]: 0.00 |
| N=C(N)/N=C(\N)N1CCOCC1 [Moroxydine (hydrochloride)] | – | – | – | – | – | – | −0.16 | 1.172 | 0.8572 | Difference [1, 13]: −0.32; Cholesterol-free media + simvastatin (0.04 μM) [2, 22]: 1.02; Complete Media [2, 23]: 0.8563 |
| COc1ccc2cc(CCC(C)=O)ccc2c1 [Nabumetone] | – | – | – | – | – | – | −0.41 | – | – | Difference [1, 20]: −0.18; Cholesterol-free [1, 21]: 1.034; Complete [1, 10]: 0.8533; Cholesterol-free media + simvastatin (0.04 μM) [2, 14]: 1.525; Complete Media [2, 15]: 1.112 |
| Nc1nc(NC2CC2)c2ncn([C@H]3C=C[C@@H](CO)C3)c2n1.Nc1nc(NC2CC2)c2ncn([C@H]3C=C[C@@H](CO)C3)c2n1.O=S(=O)(O)O [Abacavir (sulfate)] | 0.06 | 0.4233 | 0.4872 | 0.16 | 0.2456 | 0.4029 | – | – | – | – |
